Source: patent US12390460B2, “Treatment for obesity” (1GLOBE BIOMEDICAL CO., LTD., priority 2018, dated 2025)

What was measured:
[1] = system: hypothalamic molecular mediators of hunger and satiety signaling (AgRP, NPY, POMC); assay: Quantitative real-time PCR of hypothalamic hunger and satiety genes; format: in vivo; conditions: HFD-fed mice, FIG. 2B
Procedure: Referring now to FIG. 2B, hypothalamic molecular mediators of hunger and satiety signaling in hypothalamus were analyzed using quantitative real-time PCR with commercially available probes (Thermo Fisher Scientific Inc., Waltham, MA). AgRP and NPY are hunger-inducing signals, while POMC is powerful satiety-inducing signal in the hypothalamus. […] This was in agreement with the food intake information that we collected over the course of the experiment. […] Therefore, it was concluded that the expression levels of hypothalamic hunger or satiety genes cannot explain the marked weight loss of the Compound-14-3-treated mice on HFD and that decrease in satiety was secondary to prolonged negative energy balance in the same group.

[2] = Fat pad weights at euthanasia (body composition); format: in vivo; conditions: HFD-fed mice at euthanasia
Excerpt: In agreement with effects of Compound 14-3 seen in the above examples, favorable changes in the body composition of Compound 14-3-treated and HFD-fed mice were also observed at the time of euthanasia through gross examination.
The former anatomical site represents visceral fat depos, while the latter belongs to subcutaneous fat depo from the perspective of human health. Both of these changes were considered very substantial and beneficial in the anti-obesity effect profile of the compound of the invention.

[3] = system: genes involved in lipid transport and degradation, beta-oxidation, de novo lipogenesis, and insulin sensitivity (RORA, ACADM, ACOX1, MLYCD, PEPCK); assay: Gene expression in visceral fat (eWAT); format: in vivo; conditions: HFD-fed mice
Excerpt: To get a more detailed insight into the metabolic changes caused by the Compound 14-3 treatment in the visceral fat (eWAT), the expression of genes involved in lipid transport and degradation, beta-oxidation, de novo lipogenesis, and insulin sensitivity were examined.
Acyl-Coenzyme A dehydrogenase, C-4 to C-12 straight chain (ACADM, FIG. 6B) is known to be important for the degradation of medium chain fatty acids.
Similarly, malonyl CoA decarboxylase (MLYCD, FIG. 6D) has been induced by the Compound 14-3 treatment. This event is linked to decreased malonyl CoA synthesis and the suppression of de novo lipogenesis by Compound 14-3.

[4] = system: human HepG2 liver cells; assay: Intracellular triglyceride content in HepG2 cells with palmitoleic acid (biochemical kit); format: cell-based; conditions: HepG2, 1.6 mM palmitoleic acid, 48 hours, 0.1 μM compound, vs DMSO; FIG. 10A
Procedure: A series of in vitro experiments were first carried out with various human hepatocyte cultures. For example, human HepG2 liver cells were incubated with 1.6 mM palmitoleic acid in EMEM medium for 48 hours in the presence of 0.1 μM Compound 14-3 or control vehicle, DMSO. After 48 hours, cells were collected and the intracellular triglyceride content was measured by a biochemical kit (Biovision, Mountain View, CA) as described in Derdak et al. J Hepatol. 2013; 58(4):785-91.

Q: Which “satiety-inducing POMC expression in hypothalamus” value ([1]; vs corresponding control group) does the source give for `CCN(CC)CCNC(=O)c1c(C)[nH]c(/C=C2\C(=O)Nc3ccc(-c4csc(-c5ccccc5)n4)cc32)c1C` [Compound 14-3] here?
A: significant decrease

Q: And the “expression of appetite-inducing genes (AgRP, NPY) in hypothalamus” value ([1]; vs vehicle)?
A: no significant difference

Q: And the “epididymal fat pad weights” value ([2]; FIG. 3A)?
A: markedly decreased

Q: And the “epididymal fat/body weight ratio” value ([2]; FIG. 3B)?
A: markedly decreased

Q: And the “unilateral (inguinal) fat pad weights” value ([2]; FIG. 3C)?
A: markedly decreased

Q: What about the “inguinal fat/body weight ratio” value ([2]; FIG. 3D) of the same compound?
A: markedly decreased

Q: What about the “RORA expression in eWAT” value ([3]; FIG. 6A) of the same compound?
A: significantly increased

Q: And the “ACADM gene expression in eWAT” value ([3]; FIG. 6B)?
A: Increased

Q: What about the “ACOX1 expression in eWAT” value ([3]; FIG. 6C) of the same compound?
A: increased

Q: What about the “MLYCD expression in eWAT” value ([3]; FIG. 6D) of the same compound?
A: induced

Q: What about the “PEPCK gene expression in eWAT” value ([3]; FIG. 6E) of the same compound?
A: comparable to that of the control-fed mice

Q: What about the “palmitoleic acid-induced increase of intracellular triglyceride content” value [4] of the same compound?
A: markedly suppressed
